One block for each compound: values may come before it. Active and inactive are the calls of the source. The calls are words filed in the database; no cut-off is given here.
Key:
[1] = target: T1, Adenosine receptor A2b (Homo sapiens) (UniProt P29275); assay: Displacement of [3H]PSB-603 from human recombinant adenosine A2B receptor expressed in CHO cells at 1 uM by liquid scintillation counting analysis; type: cell-based
T1 sequence (whole entry): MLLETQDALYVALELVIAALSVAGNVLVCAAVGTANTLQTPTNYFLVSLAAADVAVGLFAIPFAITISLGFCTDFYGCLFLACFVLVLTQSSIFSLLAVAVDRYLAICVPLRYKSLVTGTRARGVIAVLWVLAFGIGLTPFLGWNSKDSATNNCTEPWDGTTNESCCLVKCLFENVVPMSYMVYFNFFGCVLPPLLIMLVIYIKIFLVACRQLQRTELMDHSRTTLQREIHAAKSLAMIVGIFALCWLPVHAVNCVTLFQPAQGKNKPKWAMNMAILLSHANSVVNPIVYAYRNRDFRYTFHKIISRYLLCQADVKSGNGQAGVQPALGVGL

Adenosine receptor A2a [2] = target: T2, Adenosine receptor A2a (Homo sapiens, UniProt P29274); assay: Displacement of [3H]MSX-2 from human recombinant adenosine A2A receptor expressed in CHO cells by liquid scintillation counting analysis; type: cell-based
T2 sequence (P29274 whole entry): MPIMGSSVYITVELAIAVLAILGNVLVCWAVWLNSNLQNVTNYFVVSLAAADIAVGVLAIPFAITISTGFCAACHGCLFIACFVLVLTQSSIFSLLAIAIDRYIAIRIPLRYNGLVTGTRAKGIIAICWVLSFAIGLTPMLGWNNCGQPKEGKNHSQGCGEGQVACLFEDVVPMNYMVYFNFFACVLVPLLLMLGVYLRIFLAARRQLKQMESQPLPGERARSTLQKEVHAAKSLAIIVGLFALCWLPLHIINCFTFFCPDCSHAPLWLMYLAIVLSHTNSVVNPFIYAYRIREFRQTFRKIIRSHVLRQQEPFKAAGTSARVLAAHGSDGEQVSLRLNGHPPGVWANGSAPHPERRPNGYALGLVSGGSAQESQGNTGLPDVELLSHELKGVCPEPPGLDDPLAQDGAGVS

Adenosine receptor A2b [3] = target: T3, Adenosine receptor A2b (Homo sapiens, UniProt P29275); assay: Displacement of [3H]PSB-603 from human recombinant adenosine A2B receptor expressed in CHO cells by liquid scintillation counting analysis; type: cell-based
T3 sequence (P29275 whole entry): T1 sequence (whole entry)

Histamine H3 receptor = Histamine H3 receptor (Homo sapiens, UniProt Q9Y5N1); assay: Displacement of [3H] N-alpha methylhistamine from human recombinant histamine H3 receptor expressed in HEK293 cells measured after 90 mins; type: cell-based
Chain of Histamine H3 receptor (Q9Y5N1 whole entry): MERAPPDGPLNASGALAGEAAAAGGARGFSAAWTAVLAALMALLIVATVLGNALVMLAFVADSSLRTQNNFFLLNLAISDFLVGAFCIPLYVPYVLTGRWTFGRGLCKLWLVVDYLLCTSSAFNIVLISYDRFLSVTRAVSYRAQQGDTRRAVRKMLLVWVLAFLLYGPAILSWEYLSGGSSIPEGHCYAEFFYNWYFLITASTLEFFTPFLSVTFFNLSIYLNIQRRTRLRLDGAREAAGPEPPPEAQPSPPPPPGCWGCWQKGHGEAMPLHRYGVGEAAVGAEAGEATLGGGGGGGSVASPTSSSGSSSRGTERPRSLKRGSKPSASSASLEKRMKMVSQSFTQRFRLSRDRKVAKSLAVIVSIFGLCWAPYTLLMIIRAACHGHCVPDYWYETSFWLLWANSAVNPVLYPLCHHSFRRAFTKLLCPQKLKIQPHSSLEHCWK

Adenosine receptor A3 = target: T4, Adenosine receptor A3 (Homo sapiens, UniProt P0DMS8); assay: Displacement of [3H]PSB-11 from human recombinant adenosine A3 receptor expressed in CHO cells by liquid scintillation counting analysis; type: cell-based
T4 sequence (P0DMS8 whole entry): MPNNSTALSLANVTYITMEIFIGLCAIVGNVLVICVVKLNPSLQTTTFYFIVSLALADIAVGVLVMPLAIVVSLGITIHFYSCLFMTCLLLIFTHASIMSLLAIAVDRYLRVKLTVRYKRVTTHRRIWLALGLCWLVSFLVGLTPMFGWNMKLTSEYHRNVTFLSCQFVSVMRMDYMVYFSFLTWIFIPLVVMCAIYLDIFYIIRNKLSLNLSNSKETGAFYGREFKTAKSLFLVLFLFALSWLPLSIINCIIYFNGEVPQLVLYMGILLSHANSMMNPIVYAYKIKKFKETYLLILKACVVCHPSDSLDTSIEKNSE

Adenosine receptor A1 [4] = target: T5, Adenosine receptor A1 (Homo sapiens, UniProt P30542); assay: Displacement of [3H]CCPA from human recombinant adenosine A1 receptor expressed in CHO cells by liquid scintillation counting analysis; type: cell-based
T5 sequence (P30542 whole entry): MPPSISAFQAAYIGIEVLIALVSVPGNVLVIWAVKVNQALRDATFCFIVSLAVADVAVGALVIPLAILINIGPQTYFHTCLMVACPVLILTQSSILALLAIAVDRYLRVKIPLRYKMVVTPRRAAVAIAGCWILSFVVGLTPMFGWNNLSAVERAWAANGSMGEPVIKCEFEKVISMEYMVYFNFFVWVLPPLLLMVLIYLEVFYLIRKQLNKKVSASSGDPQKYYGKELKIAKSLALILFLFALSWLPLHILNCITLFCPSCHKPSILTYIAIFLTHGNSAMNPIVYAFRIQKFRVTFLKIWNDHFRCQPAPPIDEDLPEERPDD

[5] = target: T6, Adenosine receptor A3 (Homo sapiens) (UniProt P0DMS8); assay: Displacement of [3H]PSB-11 from human recombinant adenosine A3 receptor expressed in CHO cells at 1 uM by liquid scintillation counting analysis; type: cell-based
T6 sequence (whole entry): T4 sequence (P0DMS8 whole entry)

Adenosine receptor A2b [6] = target: T3, Adenosine receptor A2b; assay: Binding affinity to human recombinant adenosine A2B receptor expressed in CHO cells using [3H]PSB-603 by functional activity assay; type: cell-based
Adenosine receptor A1 [7] = target: T5, Adenosine receptor A1; assay: Binding affinity to human recombinant adenosine A1 receptor expressed in CHO cells using [3H]CCPA by functional activity assay; type: cell-based
Homo sapiens [8] = species: Homo sapiens; assay: Selectivity index, ratio of Ki for human recombinant adenosine A3 receptor to Ki for human recombinant adenosine A2B receptor
Homo sapiens [9] = species: Homo sapiens; assay: Selectivity index, ratio of Ki for human recombinant dopamine D2S receptor to Ki for human recombinant adenosine A2A receptor
D(2) dopamine receptor = D(2) dopamine receptor (Homo sapiens, UniProt P14416); assay: Displacement of [3H]spiperone from human recombinant dopamine D2S receptor expressed in CHO cells by liquid scintillation counting analysis; type: cell-based
Chain of D(2) dopamine receptor (P14416 whole entry): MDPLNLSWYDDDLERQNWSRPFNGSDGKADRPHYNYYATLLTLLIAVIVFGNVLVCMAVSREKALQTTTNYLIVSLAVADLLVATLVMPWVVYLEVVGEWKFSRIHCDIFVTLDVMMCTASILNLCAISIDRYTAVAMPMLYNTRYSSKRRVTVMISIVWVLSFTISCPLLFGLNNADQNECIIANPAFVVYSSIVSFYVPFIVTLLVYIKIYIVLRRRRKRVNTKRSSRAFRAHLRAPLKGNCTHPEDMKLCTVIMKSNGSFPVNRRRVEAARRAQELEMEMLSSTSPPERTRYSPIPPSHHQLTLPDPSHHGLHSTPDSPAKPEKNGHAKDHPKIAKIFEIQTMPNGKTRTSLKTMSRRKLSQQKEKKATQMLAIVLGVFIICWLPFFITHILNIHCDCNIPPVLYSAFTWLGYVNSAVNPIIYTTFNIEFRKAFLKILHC

Homo sapiens [10] = species: Homo sapiens; assay: Selectivity index, ratio of Ki for human recombinant dopamine D2S receptor to Ki for human recombinant adenosine A3 receptor
Histamine H1 receptor = Histamine H1 receptor (Homo sapiens, UniProt P35367); assay: Displacement of [3H]pyrilamine from human recombinant histamine H1 receptor expressed in CHO cells by liquid scintillation counting analysis; type: cell-based
Chain of Histamine H1 receptor (P35367 whole entry): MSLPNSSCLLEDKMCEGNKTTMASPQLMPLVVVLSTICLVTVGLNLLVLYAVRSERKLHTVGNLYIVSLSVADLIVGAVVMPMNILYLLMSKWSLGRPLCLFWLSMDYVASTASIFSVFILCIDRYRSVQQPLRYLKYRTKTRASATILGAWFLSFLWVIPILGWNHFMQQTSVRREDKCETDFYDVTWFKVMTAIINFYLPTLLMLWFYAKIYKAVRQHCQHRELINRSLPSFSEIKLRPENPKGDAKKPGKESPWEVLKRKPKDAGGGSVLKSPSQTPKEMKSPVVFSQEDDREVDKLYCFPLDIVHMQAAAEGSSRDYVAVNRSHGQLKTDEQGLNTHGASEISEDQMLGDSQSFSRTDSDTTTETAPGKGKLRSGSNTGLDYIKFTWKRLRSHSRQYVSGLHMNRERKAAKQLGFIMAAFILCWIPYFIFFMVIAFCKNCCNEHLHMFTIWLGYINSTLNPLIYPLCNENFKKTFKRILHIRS

Homo sapiens [11] = species: Homo sapiens; assay: Selectivity index, ratio of Ki for human recombinant adenosine A2A receptor to Ki for human recombinant histamine H3 receptor
Homo sapiens [12] = species: Homo sapiens; assay: Selectivity index, ratio of Ki for human recombinant adenosine A2B receptor to Ki for human recombinant histamine H3 receptor
Homo sapiens [13] = species: Homo sapiens; assay: Selectivity index, ratio of Ki for human recombinant dopamine D3 receptor to Ki for human recombinant adenosine A2A receptor
Homo sapiens [14] = species: Homo sapiens; assay: Selectivity index, ratio of Ki for human recombinant adenosine A3 receptor to Ki for human recombinant adenosine A2A receptor
Rattus norvegicus = assay: Antiparkinson's activity in ip dosed L-DOPA induced dyskinesia Sprague-Dawley rat model assessed as reduction in dyskinesia by measuring abnormal involuntary movement upto 21 days; type: functional, organism-based; conditions: dose 0.1-1 mg/kg, time day <=21
[15] = Displacement of [3H]SCH23390 from human recombinant dopamine D1 receptor expressed in HEK293 cells by liquid scintillation counting analysis; type: cell-based
MAO-B = MAO-B (Homo sapiens, UniProt P27338); assay: Inhibition of human recombinant MAO-B using kynuramine as substrate at 10 uM measured for 30 mins by spectrophotometric analysis; conditions: probe kynuramine
Chain of MAO-B (P27338 whole entry): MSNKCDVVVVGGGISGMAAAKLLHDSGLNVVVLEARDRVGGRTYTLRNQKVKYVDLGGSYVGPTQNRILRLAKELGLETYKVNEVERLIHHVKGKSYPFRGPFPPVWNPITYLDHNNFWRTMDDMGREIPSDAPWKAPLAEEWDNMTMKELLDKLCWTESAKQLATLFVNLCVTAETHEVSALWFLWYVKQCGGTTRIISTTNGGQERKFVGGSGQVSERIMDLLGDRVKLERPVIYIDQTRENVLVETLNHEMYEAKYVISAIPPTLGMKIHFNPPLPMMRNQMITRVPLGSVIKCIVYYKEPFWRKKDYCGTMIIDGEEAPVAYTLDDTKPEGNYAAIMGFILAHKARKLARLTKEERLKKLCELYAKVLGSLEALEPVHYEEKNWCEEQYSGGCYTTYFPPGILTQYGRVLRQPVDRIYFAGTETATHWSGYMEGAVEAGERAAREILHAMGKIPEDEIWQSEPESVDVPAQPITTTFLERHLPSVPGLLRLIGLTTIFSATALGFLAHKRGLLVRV

Homo sapiens [16] = species: Homo sapiens; assay: Selectivity index, ratio of Ki for human recombinant adenosine A1 receptor to Ki for human recombinant histamine H3 receptor
Homo sapiens [17] = species: Homo sapiens; assay: Selectivity index, ratio of Ki for human recombinant adenosine A2B receptor to Ki for human recombinant adenosine A2A receptor
Adenosine receptor A2a [18] = target: T2, Adenosine receptor A2a; assay: […] activity at human recombinant adenosine A2A receptor expressed in CHO cells assessed as inhibition of NECA-induced cAMP accumulation incubated for 20 mins by radioligand competition binding assay; type: functional, cell-based
[19] = target: Amine oxidase [flavin-containing] B (Homo sapiens, UniProt P27338); assay: Inhibition of human recombinant MAO-B using kynuramine as substrate measured for 30 mins by spectrophotometric analysis
Chain of Amine oxidase [flavin-containing] B (P27338 whole entry): as above

Homo sapiens [20] = species: Homo sapiens; assay: Selectivity index, ratio of Ki for human recombinant dopamine D2S receptor to Ki for human recombinant histamine H3 receptor
D(1B) dopamine receptor = D(1B) dopamine receptor (Homo sapiens, UniProt P21918); assay: Displacement of [3H]SCH23390 from human recombinant dopamine D5 receptor expressed in HEK293 cells by liquid scintillation counting analysis; type: cell-based
Chain of D(1B) dopamine receptor (P21918 whole entry): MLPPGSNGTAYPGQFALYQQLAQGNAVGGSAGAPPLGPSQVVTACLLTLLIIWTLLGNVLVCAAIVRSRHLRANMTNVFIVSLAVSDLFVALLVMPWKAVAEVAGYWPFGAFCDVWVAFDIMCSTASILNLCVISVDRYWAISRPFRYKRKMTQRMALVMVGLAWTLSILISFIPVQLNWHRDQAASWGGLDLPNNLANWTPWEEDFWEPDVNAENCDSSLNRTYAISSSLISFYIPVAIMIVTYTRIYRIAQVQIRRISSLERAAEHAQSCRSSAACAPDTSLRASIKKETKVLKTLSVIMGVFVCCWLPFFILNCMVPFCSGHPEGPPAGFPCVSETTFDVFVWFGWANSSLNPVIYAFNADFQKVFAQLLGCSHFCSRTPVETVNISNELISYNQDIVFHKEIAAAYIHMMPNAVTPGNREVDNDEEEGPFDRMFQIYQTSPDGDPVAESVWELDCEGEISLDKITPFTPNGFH

Homo sapiens [21] = species: Homo sapiens; assay: Selectivity index, ratio of Ki for human recombinant adenosine A2B receptor to Ki for human recombinant adenosine A1 receptor
[22] = target: Adenosine receptors; A1 & A3 (Homo sapiens) (UniProt P30542+P0DMS8); assay: Selectivity index, ratio of Ki for human recombinant adenosine A3 receptor to Ki for human recombinant adenosine A1 receptor; type: protein assay
Homo sapiens [23] = species: Homo sapiens; assay: Selectivity index, ratio of Ki for human recombinant dopamine D3 receptor to Ki for human recombinant adenosine A1 receptor
Homo sapiens [24] = species: Homo sapiens; assay: Selectivity index, ratio of Ki for human recombinant dopamine D3 receptor to Ki for human recombinant histamine H3 receptor
Histamine H4 receptor = Histamine H4 receptor (Homo sapiens, UniProt Q9H3N8); assay: Displacement of [3H]histamine from human recombinant histamine H4 receptor expressed in sf9 cells by liquid scintillation counting analysis
Homo sapiens [25] = species: Homo sapiens; assay: Selectivity index, ratio of Ki for human recombinant dopamine D3 receptor to Ki for human recombinant adenosine A3 receptor
Homo sapiens [26] = species: Homo sapiens; assay: Selectivity index, ratio of Ki for human recombinant dopamine D2S receptor to Ki for human recombinant adenosine A1 receptor
Homo sapiens [27] = species: Homo sapiens; assay: Selectivity index, ratio of Ki for human recombinant dopamine D2S receptor to Ki for human recombinant adenosine A2B receptor
Homo sapiens [28] = species: Homo sapiens; assay: Selectivity index, ratio of Ki for human recombinant dopamine D3 receptor to Ki for human recombinant dopamine D2S receptor
D(3) dopamine receptor = D(3) dopamine receptor (Homo sapiens, UniProt P35462); assay: Displacement of [3H]spiperone from human recombinant dopamine D3 receptor expressed in CHO cells by liquid scintillation counting analysis; type: cell-based
Chain of D(3) dopamine receptor (P35462 whole entry): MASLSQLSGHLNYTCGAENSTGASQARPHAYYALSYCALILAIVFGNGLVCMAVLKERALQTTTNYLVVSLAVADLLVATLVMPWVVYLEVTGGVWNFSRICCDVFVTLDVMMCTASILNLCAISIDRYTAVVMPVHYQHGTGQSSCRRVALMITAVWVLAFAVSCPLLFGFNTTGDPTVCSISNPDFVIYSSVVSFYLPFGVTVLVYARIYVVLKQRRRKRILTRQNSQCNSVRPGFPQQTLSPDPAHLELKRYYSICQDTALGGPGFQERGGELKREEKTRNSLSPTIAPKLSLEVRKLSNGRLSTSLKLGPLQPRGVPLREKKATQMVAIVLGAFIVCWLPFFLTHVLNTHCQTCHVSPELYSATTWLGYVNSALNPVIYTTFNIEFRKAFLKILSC

MAO-A = MAO-A (Homo sapiens, UniProt P21397); assay: Inhibition of human recombinant MAO-A using kynuramine as substrate at 10 uM measured for 30 mins by spectrophotometric analysis; conditions: probe kynuramine
Chain of MAO-A (P21397 whole entry): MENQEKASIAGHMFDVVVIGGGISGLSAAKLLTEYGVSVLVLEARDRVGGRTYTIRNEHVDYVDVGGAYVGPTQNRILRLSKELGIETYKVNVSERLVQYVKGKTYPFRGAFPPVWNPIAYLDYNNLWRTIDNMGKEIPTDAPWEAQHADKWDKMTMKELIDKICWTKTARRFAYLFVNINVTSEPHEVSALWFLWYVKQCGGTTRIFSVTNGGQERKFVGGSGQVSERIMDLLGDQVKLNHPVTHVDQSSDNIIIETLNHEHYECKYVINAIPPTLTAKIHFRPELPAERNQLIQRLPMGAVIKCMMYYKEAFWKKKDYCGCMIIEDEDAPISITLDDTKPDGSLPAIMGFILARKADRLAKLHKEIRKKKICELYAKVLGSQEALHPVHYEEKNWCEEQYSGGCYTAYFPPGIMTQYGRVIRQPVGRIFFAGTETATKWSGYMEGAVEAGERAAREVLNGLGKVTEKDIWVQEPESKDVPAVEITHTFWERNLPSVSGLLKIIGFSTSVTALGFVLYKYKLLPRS

Homo sapiens [29] = species: Homo sapiens; assay: Selectivity index, ratio of Ki for human recombinant adenosine A2A receptor to Ki for human recombinant adenosine A1 receptor
Homo sapiens [30] = species: Homo sapiens; assay: Selectivity index, ratio of Ki for human recombinant dopamine D3 receptor to Ki for human recombinant adenosine A2B receptor
Homo sapiens [31] = species: Homo sapiens; assay: Selectivity index, ratio of Ki for human recombinant adenosine A3 receptor to Ki for human recombinant histamine H3 receptor
Adenosine receptor A2a [32] = target: T2, Adenosine receptor A2a; assay: Displacement of [3H]MSX-2 from human recombinant adenosine A2A receptor expressed in CHO cells at 1 uM by liquid scintillation counting analysis; type: cell-based
[33] = target: T7, Adenosine receptor A1 (Homo sapiens) (UniProt P30542); assay: Displacement of [3H]CCPA from human recombinant adenosine A1 receptor expressed in CHO cells at 1 uM by liquid scintillation counting analysis; type: cell-based
T7 sequence (whole entry): T5 sequence (P30542 whole entry)

Compound: Nc1nc(-c2ccc(OCCCN3CCCCC3)cc2)c2c(n1)-c1ccccc1C2
inhibition [1]: 28%
Ki (Adenosine receptor A2a [2]): 717 nM
Ki (Adenosine receptor A2b [3]): > 1000 nM
Ki (Histamine H3 receptor): 0.49 nM
Ki (Adenosine receptor A3): > 1000 nM
Ki (Adenosine receptor A1 [4]): 2510 nM
inhibition [5]: 24%

Compound: Nc1nc(-c2ccccc2)c2c(n1)-c1cc(OCCCN3CCCC3)ccc1C2
Ratio Ki (Homo sapiens [8]): 4
Ratio Ki (Homo sapiens [9]): 172
Ki (D(2) dopamine receptor): 1250 nM
Ratio Ki (Homo sapiens [10]): 8
Ki (Histamine H1 receptor): > 1000 nM
Ratio Ki (Homo sapiens [11]): 0.66
Ratio Ki (Homo sapiens [12]): 3
Ki (Adenosine receptor A2a [2]): 7.25 nM
Ratio Ki (Homo sapiens [13]): 40
Ki (Adenosine receptor A2b [3]): 36.9 nM
Ratio Ki (Homo sapiens [14]): 21
Activity (Rattus norvegicus): Dose-Dependent Effect
Ki [15]: > 1000 nM
inhibition at 0.5 h, 10 µM (MAO-B): 57%
Ratio Ki (Homo sapiens [16]): 1
Ratio Ki (Homo sapiens [17]): 5
Activity (Adenosine receptor A2a [18]): inactive
IC50 [19]: > 1000 nM
Ratio Ki (Homo sapiens [20]): 113
Ki (D(1B) dopamine receptor): > 1000 nM
Ratio Ki (Homo sapiens [21]): 3
Ratio Ki [22]: 13
Ratio Ki (Homo sapiens [23]): 25
Ratio Ki (Homo sapiens [24]): 26
Ki (Histamine H3 receptor): 11 nM
Ki (Histamine H4 receptor): > 10000 nM
Ratio Ki (Homo sapiens [25]): 2
Ratio Ki (Homo sapiens [26]): 108
Ratio Ki (Homo sapiens [27]): 34
Ratio Ki (Homo sapiens [28]): 0.23
Ki (D(3) dopamine receptor): 290 nM
inhibition at 0.5 h, 10 µM (MAO-A): 7.4%
Ratio Ki (Homo sapiens [29]): 0.63
Ki (Adenosine receptor A3): 150 nM
Ratio Ki (Homo sapiens [30]): 8
Ki (Adenosine receptor A1 [4]): 11.5 nM
Ratio Ki (Homo sapiens [31]): 14

Compound: COCCOc1ccc(N2CCN(CCn3ncc4c3nc(N)n3nc(-c5ccco5)nc43)CC2)cc1 [PRELADENANT]
Ki (Adenosine receptor A2b [3]): > 1000 nM
Ki (Adenosine receptor A3): > 1000 nM

Compound: Nc1nc(-c2ccccc2)c2c(n1)-c1ccc(OCCCN3CCCCC3)cc1C2
inhibition [1]: 34%
Ki (Adenosine receptor A2a [2]): > 1000 nM
Ki (Adenosine receptor A2b [3]): > 1000 nM
inhibition (Adenosine receptor A2a [32]): 34%
Ki (Histamine H3 receptor): 2.3 nM
inhibition [33]: 24%
Ki (Adenosine receptor A3): > 1000 nM
Ki (Adenosine receptor A1 [4]): > 1000 nM
inhibition [5]: 39%

Compound: Nc1nc(-c2ccc(OCCCN3CCCCC3)cc2)c2c(n1)-c1ccc(OCCCN3CCCCC3)cc1C2=O
inhibition [1]: 15%
Ki (Adenosine receptor A2a [2]): 203 nM
Ki (Adenosine receptor A2b [3]): > 1000 nM
Ki (Histamine H3 receptor): 0.31 nM
inhibition ([33]; filed as antagonist): 44%
Ki (Adenosine receptor A3): > 1000 nM
Ki (Adenosine receptor A1 [4]): ≥ 1000 nM
inhibition [5]: 32%

The remaining lines, values ahead:

EC50 (Adenosine receptor A2b [6]): 230 nM
Ki (Adenosine receptor A3): 430 nM
EC50 (Adenosine receptor A1 [7]): 48 nM
Compound: Nc1nc(-c2ccccc2)c2c(n1)-c1cc(OCCN3CCOCC3)ccc1C2=O

Ki (Adenosine receptor A2a [2]): 104 nM
Ki (Adenosine receptor A2b [3]): 180 nM
Ki (Histamine H3 receptor): 31 nM
Ki (Adenosine receptor A3): 846 nM
Ki (Adenosine receptor A1 [4]): 129 nM
Compound: Nc1nc(-c2ccccc2)c2c(n1)-c1ccc(OCCCN3CCCC3)cc1C2=O

Ki (Adenosine receptor A2a [2]): 142 nM
Ki (Adenosine receptor A2b [3]): 114 nM
Ki (Histamine H3 receptor): 36 nM
Ki (Adenosine receptor A3): > 1000 nM
Ki (Adenosine receptor A1 [4]): 367 nM
inhibition [5]: 12%
Compound: Nc1nc(-c2ccccc2)c2c(n1)-c1ccc(OCCCN3CCCCC3)cc1C2=O
